# System: Substance P
# Assay: Tachykinin antagonistic action: suppression of substance P-induced contraction of isolated guinea pig ileum
# Set-up: species or system guinea pig (Hartley strain, male)
# Conditions: isotonic contraction, substance P 10^-8 M, 10 minutes treatment with test drug
# Method: The compounds of the present invention were tested by an assay using ileum isolated from guinea pigs. Male guinea pigs of the Hartley strain (400 g to 500 g) were fainted and bled out. Then, ileum was isolated and hung in an organ bath filled with a nutritive solution. After an equilibration for 60 minutes, isotonic contraction was recorded. Substance P, a tachykinin agonist, was administered in a dose of 10^-8 M every 15 minutes. Administration of substance P was repeated for 3 to 4 times and it was confirmed that a contraction height for each run became constant. The constant contraction was used as a control. A treatment with the test drug was carried out for 10 minutes and then substance P was administered again and a concentration vs. action curve was prepared. A 50% suppression concentration (lC50) was determined from the concentration vs. action curve of the test drug. The compound of the present invention was used as a test drug and an example of the result of its antagonistic action to substance P is shown in Table 1: […]
row,SMILES,IC50
1,"CC(=O)Oc1ccc(/C=C/C(=O)NCCCN(CCCCN(CCCNC(=O)/C=C/c2ccc(OC(C)=O)cc2)C(=O)/C=C/c2ccc(OC(C)=O)cc2)C(=O)/C=C/c2ccc(OC(C)=O)cc2)cc1 [Compound 1, N1,N5,N10,N14-Tetrakis[3-(4-acetoxyphenyl)-2-propenoyl]tetraazatetradecane]",14 nM
2,"O=C(/C=C/c1ccc(O)cc1)NCCCN(CCCCN(CCCNC(=O)/C=C/c1ccc(O)cc1)C(=O)/C=C/c1ccc(O)cc1)C(=O)/C=C/c1ccc(O)cc1 [Compound 2, N1,N5,N10,N14-Tetrakis[3-(4-hydroxyphenyl)-2-propenoyl]tetraazatetradecane]",11 nM
3,"COc1cc(/C=C/C(=O)NCCCN(CCCCN(CCCNC(=O)/C=C/c2ccc(OC(C)=O)c(OC)c2)C(=O)/C=C/c2ccc(OC(C)=O)c(OC)c2)C(=O)/C=C/c2ccc(OC(C)=O)c(OC)c2)ccc1OC(C)=O [Compound 3, N1,N5,N10,N14-Tetrakis[3-(4-acetoxy-3-methoxyphenyl)-2-propenoyl]tetraazatetradecane]",710 nM
4,"COc1cc(/C=C/C(=O)NCCCN(CCCCN(CCCNC(=O)/C=C/c2ccc(O)c(OC)c2)C(=O)/C=C/c2ccc(O)c(OC)c2)C(=O)/C=C/c2ccc(O)c(OC)c2)ccc1O [Compound 4, N1,N5,N10,N14-Tetrakis[3-(4-hydroxy-3-methoxyphenyl)-2-propenoyl]tetraazatetradecane]",580 nM
